Source: patent publication US5218096A, “Lactoneotrehalose, and its preparation and uses” (Kabushiki Kaisha Hayashibara Seibutsu Kagaku Kenkyujo, priority 1990, dated 1993)
In brackets after ≈: the same amount, converted by molar mass. Like-named read-outs stand apart in the source and are kept apart here.

Key:
[1] = system: Bacteroides distasonis JCM 5825; experiment: Assimilation by intestinal microorganism; type: cell-based; conditions: 0.5 w/v % saccharide, PYF broth, 37° C., 96 hours
Experimental: (§1) The resultant broth was diluted 5-fold, and the turbidity of the diluted solution was determined at 750 nm in 1-cm cell cuvette. The growth of the intestinal microorganisms and the assimilability of lactoneotrehalose were both evaluated with the turbidity. As control, glucose and lactose were used in place of lactoneotrehalose.

[2] = system: Bifidobacterium adolescentis JCM 1275; experiment: Assimilation by intestinal microorganism; type: cell-based; conditions: 0.5 w/v % saccharide, PYF broth, 37° C., 96 hours
Experimental: as §1

[3] = system: Bifidobacterium animalis JCM 1190; experiment: Assimilation by intestinal microorganism; type: cell-based; conditions: 0.5 w/v % saccharide, PYF broth, 37° C., 96 hours
Experimental: as §1

[4] = system: Bifidobacterium breve JCM 1192; experiment: Assimilation by intestinal microorganism; type: cell-based; conditions: 0.5 w/v % saccharide, PYF broth, 37° C., 96 hours
Experimental: as §1

[5] = system: Bifidobacterium infantis JCM 1222; experiment: Assimilation by intestinal microorganism; type: cell-based; conditions: 0.5 w/v % saccharide, PYF broth, 37° C., 96 hours
Experimental: as §1

[6] = system: Bifidobacterium longum JCM 1217; experiment: Assimilation by intestinal microorganism; type: cell-based; conditions: 0.5 w/v % saccharide, PYF broth, 37° C., 96 hours
Experimental: as §1

[7] = system: Escherichia coli IFO 3301; experiment: Assimilation by intestinal microorganism; type: cell-based; conditions: 0.5 w/v % saccharide, PYF broth, 37° C., 96 hours
Experimental: as §1

[8] = system: Eubacterium aerofaciens ATCC 25986; experiment: Assimilation by intestinal microorganism; type: cell-based; conditions: 0.5 w/v % saccharide, PYF broth, 37° C., 96 hours
Experimental: as §1

[9] = system: Eubacterium limosum JCM 6421; experiment: Assimilation by intestinal microorganism; type: cell-based; conditions: 0.5 w/v % saccharide, PYF broth, 37° C., 96 hours
Experimental: as §1

[10] = system: Lactobacillus acidophilus JCM 1132; experiment: Assimilation by intestinal microorganism; type: cell-based; conditions: 0.5 w/v % saccharide, PYF broth, 37° C., 96 hours
Experimental: as §1

[11] = system: Lactobacillus plantarum IFO 3070; experiment: Assimilation by intestinal microorganism; type: cell-based; conditions: 0.5 w/v % saccharide, PYF broth, 37° C., 96 hours
Experimental: as §1

[12] = system: Peptostreptococcus prevotii ATCC 9321; experiment: Assimilation by intestinal microorganism; type: cell-based; conditions: 0.5 w/v % saccharide, PYF broth, 37° C., 96 hours
Experimental: as §1

[13] = system: Streptococcus faecalis IAM 10065; experiment: Assimilation by intestinal microorganism; type: cell-based; conditions: 0.5 w/v % saccharide, PYF broth, 37° C., 96 hours
Experimental: as §1

[14] = system: Clostridium sporogenes JCM 1416; experiment: Assimilation by intestinal microorganism; type: cell-based; conditions: 0.5 w/v % saccharide, PYF broth, 37° C., 96 hours
Experimental: as §1

[15] = Digestion test in vitro, hydrolysis rate; type: in vitro ADME; conditions: salivary amylase, read-out: hydrolysis rate (the ratio of reducing sugars against total sugars)
Experimental: (§2) In accordance with the method reported in Okada et al., Journal of Japanese Society of Nutrition and Food Science, Vol.43, No.1, pp.23-29 (1990), a crystalline lactoneotrehalose specimen prepared by the method in Experiment 1 was tested for its digestibility in vitro, and the digestibility was evaluated based on the hydrolysis rate (the ratio of reducing sugars against total sugars).

[16] = Digestion test in vitro, hydrolysis rate; type: in vitro ADME; conditions: gastric juice, read-out: hydrolysis rate (the ratio of reducing sugars against total sugars)
Experimental: as §2

[17] = Digestion test in vitro, hydrolysis rate; type: in vitro ADME; conditions: amylopsin, read-out: hydrolysis rate (the ratio of reducing sugars against total sugars)
Experimental: as §2

[18] = Digestion test in vitro, hydrolysis rate; type: in vitro ADME; conditions: small intestinal mucosa enzyme; in vitro, enzyme of small intestinal mucous membrane; read-out: hydrolysis rate (the ratio of reducing sugars against total sugars)
Experimental: as §2

[19] = system: Enzyme of small intestinal mucous membrane; experiment: Digestion test in vitro, hydrolysis rate; type: in vitro ADME; conditions: conclusion from Table 1
Experimental: as §2

[20] = system: microorganisms of the genus Bifidobacterium; experiment: Assimilation by intestinal microorganism, overall finding; type: cell-based; conditions: conclusion from Table 3
Experimental: as §1

[21] = system: mice; experiment: Acute toxicity test, oral
From the text: A crystalline lactoneotrehalose specimen, prepared by the method in Experiment 1, was orally administered to 7 week-old dd mice for acute toxicity test.

[22] = Solubility; type: physicochemical
[23] = Heat of dissolution; type: physicochemical
[24] = Hygroscopicity, deliquescence and moisture content; type: physicochemical
From the text: (9) Physical properties and color Colorless and transparent crystal having a true specific gravity of 1.59.

[25] = Acidity of aqueous solution; type: physicochemical
[26] = Coloring reaction; type: physicochemical

O=C[C@H](O)[C@@H](O)[C@H](O)[C@H](O)CO [Glucose, glucose]
Judgement of turbidity (A750 × 5) [1]: ± (0.1 or higher but less than 0.15)
Judgement of turbidity (A750 × 5) [2]: ++ (0.2 or higher but less than 0.3)
Judgement of turbidity (A750 × 5) [3]: ++ (0.2 or higher but less than 0.3)
Judgement of turbidity (A750 × 5) [4]: ++ (0.2 or higher but less than 0.3)
Judgement of turbidity (A750 × 5) [5]: ++ (0.2 or higher but less than 0.3)
Judgement of turbidity (A750 × 5) [6]: ++ (0.2 or higher but less than 0.3)
Judgement of turbidity (A750 × 5) [7]: ++ (0.2 or higher but less than 0.3)
Judgement of turbidity (A750 × 5) [8]: +++ (0.3 or higher)
Judgement of turbidity (A750 × 5) [9]: ± (0.1 or higher but less than 0.15)
Judgement of turbidity (A750 × 5) [10]: + (0.15 or higher but less than 0.2)
Judgement of turbidity (A750 × 5) [11]: + (0.15 or higher but less than 0.2)
Judgement of turbidity (A750 × 5) [12]: - (less than 0.1)
Judgement of turbidity (A750 × 5) [13]: ++ (0.2 or higher but less than 0.3)

OC[C@H]1O[C@@H](O[C@H]2[C@H](O)[C@@H](O)C(O)O[C@@H]2CO)[C@H](O)[C@@H](O)[C@H]1O (stereo partly drawn) [Lactose, O-β-D-galactopyranosyl-(1→4)-D-glucose]
Judgement of turbidity (A750 × 5) [1]: ± (0.1 or higher but less than 0.15)
Judgement of turbidity (A750 × 5) [2]: ++ (0.2 or higher but less than 0.3)
Judgement of turbidity (A750 × 5) [3]: ++ (0.2 or higher but less than 0.3)
Judgement of turbidity (A750 × 5) [4]: +++ (0.3 or higher)
Judgement of turbidity (A750 × 5) [5]: ++ (0.2 or higher but less than 0.3)
Judgement of turbidity (A750 × 5) [6]: ++ (0.2 or higher but less than 0.3)
Judgement of turbidity (A750 × 5) [14]: - (less than 0.1)
Judgement of turbidity (A750 × 5) [7]: ± (0.1 or higher but less than 0.15)
Judgement of turbidity (A750 × 5) [8]: ++ (0.2 or higher but less than 0.3)
Judgement of turbidity (A750 × 5) [9]: - (less than 0.1)
Judgement of turbidity (A750 × 5) [10]: + (0.15 or higher but less than 0.2)
Judgement of turbidity (A750 × 5) [11]: + (0.15 or higher but less than 0.2)
Judgement of turbidity (A750 × 5) [12]: - (less than 0.1)
Judgement of turbidity (A750 × 5) [13]: + (0.15 or higher but less than 0.2)

OC[C@H]1O[C@@H](O[C@H]2[C@H](O)[C@@H](O)[C@H](O[C@H]3O[C@H](CO)[C@@H](O)[C@H](O)[C@H]3O)O[C@@H]2CO)[C@H](O)[C@@H](O)[C@H]1O [lactoneotrehalose, O-β-D-galactopyranosyl-(1→4)-O-β-D-glucopyranosyl α-D-glucopyranoside]
metabolised [15]: 0%
metabolised [16]: 0%
metabolised [17]: 0%
metabolised [18]: 60.2%
main site of hydrolysis [19]: mainly hydrolyzed by the enzyme from intestinal mucous membrane
Judgement of turbidity (A750 × 5) [1]: - (less than 0.1)
Judgement of turbidity (A750 × 5) [2]: ++ (0.2 or higher but less than 0.3)
Judgement of turbidity (A750 × 5) [3]: ++ (0.2 or higher but less than 0.3)
Judgement of turbidity (A750 × 5) [4]: ++ (0.2 or higher but less than 0.3)
Judgement of turbidity (A750 × 5) [5]: ++ (0.2 or higher but less than 0.3)
Judgement of turbidity (A750 × 5) [6]: ++ (0.2 or higher but less than 0.3)
Judgement of turbidity (A750 × 5) [14]: - (less than 0.1)
Judgement of turbidity (A750 × 5) [7]: - (less than 0.1)
Judgement of turbidity (A750 × 5) [8]: - (less than 0.1)
Judgement of turbidity (A750 × 5) [9]: - (less than 0.1)
Judgement of turbidity (A750 × 5) [10]: ± (0.1 or higher but less than 0.15)
Judgement of turbidity (A750 × 5) [11]: - (less than 0.1)
Judgement of turbidity (A750 × 5) [12]: - (less than 0.1)
Judgement of turbidity (A750 × 5) [13]: - (less than 0.1)
selective utilization by genus Bifidobacterium [20]: selectively utilized at a relatively high-level by microorganisms of the genus Bifidobacterium
mortality ([21]; 7 week-old dd mice, up to 5 g): no mouse died
toxicity ([21]; dd mice, conclusion): extremely low in toxicity
Solubility in solvents ([22]; 0.1N hydrochloric acid): Readily soluble
Solubility in solvents ([22]; 0.1N sodium hydroxide): Readily soluble
Solubility in solvents ([22]; chloroform): insoluble
Solubility in solvents ([22]; ethanol): scarcely soluble
Solubility in solvents ([22]; ethyl acetate): insoluble
Solubility in solvents ([22]; methanol): scarcely soluble
Solubility in solvents ([22]; water): Readily soluble
solubility ([22]; water, 25° C.): 217 mg/mL (≈ 430 mM)
Heat of dissolution [23]: 20.0 cal/g
hygroscopicity and deliquescence [24]: Free of hygroscopicity and deliquescence
moisture content of crystals ([24]; Karl Fischer's method, predried in vacuo at 60° C. for 16 hours): less than 3.0%
acidity of aqueous solution of the crystal [25]: neutral or slight acidity
Fehling's reaction [26]: Negative
iodine coloration reaction [26]: Negative
